Structures are written as SMILES. Converted amounts (≈) assume the structure as drawn. Where two headings read alike, the source gives them in different places.

The test system of assay [1] is AGE formation. Nature of the assay: In vitro assay for inhibition of AGE formation (BSA-fructose/glucose fluorescence). The format is biochemical. The conditions noted are these: for IC50: read-out: AGEs IC50. As to the method:
The inhibition of AGE formation was evaluated using a modification of a previously published method. To prepare the reaction solution, 10 mg/mL of bovine serum albumin was added to 0.2 M fructose, 0.2 M glucose, and […] sodium azide. The reaction solution was mixed with various concentrations of the samples dissolved in 10% DMSO until the total volume was 1 mL. After an 8-day incubation at 37 °C, the fluorescence intensity of the reaction products was measured using a VERSA MAX GEMINI XPS fluorescence microplate reader (Molecular Devices) with excitation and emission wavelengths of 350 nm and 450 nm, respectively. After obtaining the results, we determined the IC50 values as the result on day 4. Aminoguanidine hydrochloride was used as the positive control.

The target in assay [2] is T1, α-glucosidase (Saccharomyces cerevisiae, UniProt P53341).
T1 construct: purchased Sigma-Aldrich Chemical Company
Nature of the assay: Kinetic study for α-glucosidase inhibition (Lineweaver–Burk and Dixon plots). Type of assay: biochemical. Conditions: for α-Glucosidase Inhibition Mode: determined using Lineweaver–Burk plots.

In assay [3] the target is T2, PTP1B (Homo sapiens, UniProt P18031).
T2 construct: purchased Enzo Life Sciences
T2 sequence (P18031 1-435): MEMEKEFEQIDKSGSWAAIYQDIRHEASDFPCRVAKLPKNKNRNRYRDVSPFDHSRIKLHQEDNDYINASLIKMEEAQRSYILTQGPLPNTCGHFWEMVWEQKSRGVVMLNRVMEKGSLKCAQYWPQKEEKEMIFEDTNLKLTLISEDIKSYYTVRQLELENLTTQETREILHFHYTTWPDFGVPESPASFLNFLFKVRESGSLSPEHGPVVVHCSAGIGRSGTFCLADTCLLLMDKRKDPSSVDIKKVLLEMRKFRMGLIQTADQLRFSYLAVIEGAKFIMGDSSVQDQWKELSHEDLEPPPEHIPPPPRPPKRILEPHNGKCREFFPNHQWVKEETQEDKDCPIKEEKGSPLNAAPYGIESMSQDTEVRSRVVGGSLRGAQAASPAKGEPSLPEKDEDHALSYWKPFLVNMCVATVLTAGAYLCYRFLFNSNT
Nature of the assay: In vitro assay for PTP1B inhibitory activity (pNPP). Type of assay: biochemical.

Assay [4] is described as follows: In vitro assay for peroxynitrite scavenging activity (DHR 123). The conditions noted are these: mean ± SD of triplicate experiments; for IC50: read-out: ONOO− IC50. As to the method: The ONOO^− scavenging activity assay was conducted using a previously published method that involved measuring highly fluorescent rhodamine 123, which is rapidly converted from non-fluorescent DHR 123 in the presence of ONOO^−. Briefly, the rhodamine buffer (pH 7.4) was composed of 100 μM DTPA and 5 μM DHR 123. The assay buffer was prepared prior to use and placed on ice. The fluorescence intensity of the oxidized DHR 123 in the background and sample was measured 30 s after treatment with (and without) 200 μM authentic ONOO^−. The fluorescence intensity of the oxidized DHR 123 was measured using a VERSA MAX GEMINI XPS fluorescence microplate reader (Molecular Devices., CA, USA) at excitation and emission wavelengths of 485 and 530 nm, respectively. L-Penicillamine was used as the positive control.

The target in assay [5] is T2, PTP1B. The conditions noted are these: at 20 μg/mL; ref 43 (Zhao et al.); cited from earlier work.
The target in assay [6] is T2, PTP1B. In words: Kinetic study for PTP1B inhibition (Lineweaver–Burk and Dixon plots). The conditions noted are these: for PTP1B Inhibition Mode: determined using Lineweaver–Burk plots. The format is biochemical.
Where [7] appears, read: mean ± SD of triplicate experiments, result on day 4.
[8] abbreviates: determined using Dixon plots, read-out: α-Glucosidase Ki.
Where [9] appears, read: mean ± SD of triplicate experiments, read-out: PTP1B IC50.
Setting [10] is: determined using Dixon plots, read-out: PTP1B Ki.

T1 sequence (P53341 whole entry): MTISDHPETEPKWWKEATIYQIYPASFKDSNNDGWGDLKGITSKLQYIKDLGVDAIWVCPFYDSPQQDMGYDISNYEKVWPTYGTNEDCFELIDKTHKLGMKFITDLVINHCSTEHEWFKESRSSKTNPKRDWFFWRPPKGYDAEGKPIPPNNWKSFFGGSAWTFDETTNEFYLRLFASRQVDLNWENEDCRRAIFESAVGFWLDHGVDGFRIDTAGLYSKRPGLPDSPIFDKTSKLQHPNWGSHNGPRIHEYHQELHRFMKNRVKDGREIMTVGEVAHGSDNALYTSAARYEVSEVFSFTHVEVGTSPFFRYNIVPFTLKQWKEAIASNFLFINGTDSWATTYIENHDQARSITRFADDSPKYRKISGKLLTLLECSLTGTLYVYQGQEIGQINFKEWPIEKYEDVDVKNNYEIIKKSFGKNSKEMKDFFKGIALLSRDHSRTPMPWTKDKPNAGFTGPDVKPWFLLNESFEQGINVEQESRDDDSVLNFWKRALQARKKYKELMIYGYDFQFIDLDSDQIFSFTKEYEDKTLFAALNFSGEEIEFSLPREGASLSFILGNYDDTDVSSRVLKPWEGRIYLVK

On to `Cl.N=C(N)NN` [Aminoguanidine, Aminoguanidine hydrochloride, reference compound], for which, in assay [1] (setting [7]), the “IC50 Values AGEs” value turned out to be 52.62 ± 6.70 µg/mL and the half-maximal inhibitory concentration (IC50) came out at 890 ± 70.2 µM.
Turning to `O=C1c2c(O)cc(O)cc2O[C@H](c2ccc(O)cc2O)[C@H]1O` [Dihydromorin (3), Dihydromorin], the Ki in assay [2] (setting [8]) was 10.2 µM. Moreover, in assay [2], the “α-Glucosidase Inhibition Mode” value is on record as “Mixed”. For the same compound, the IC50 stood at 118 ± 7.89 µM in assay [1] (setting [7]), 180 µM in assay [3] (setting [9]) and 2.26 ± 0.12 µM in assay [4].
For the compound `CC(C)=CCc1c(-c2ccc(O)cc2O)oc2c(CC=C(C)C)c(O)cc(O)c2c1=O` [Kuwanon C (1), Kuwanon C], the inhibition constant (Ki) in assay [2] (setting [8]) turned out to be 6.85 µM; in assay [6] (setting [10]), 39.4 µM. Also, the “α-Glucosidase Inhibition Mode” value in assay [2] is “Mixed”. Further, the “inhibitory activity on AGE formation” value in assay [1] (at 100 μg/mL) is “no inhibitory activity on AGE formation”. The half-maximal inhibitory concentration (IC50) was above 100 µM in assay [1] (setting [7]), 41.4 ± 1.64 µM in assay [3] (setting [9]) and 12.9 ± 0.68 µM in assay [4]. In assay [5], the PTP1B inhibition is reported as 58%. The “PTP1B Inhibition Mode” value in assay [6] is recorded as “Non-competitive”.
On to `CC(C)=CCc1c(-c2ccc(O)cc2O)oc2c(C3C=C(C)CC(c4ccc(O)cc4O)C3C(=O)c3ccc(O)cc3O)c(O)cc(O)c2c1=O` (stereo not drawn) [Kuwanon G (7), Kuwanon G], for which the values for the Ki in assay [2] and in assay [6] (setting [10]) were 2.03 µM and 12.4 µM, respectively. Besides, the “α-Glucosidase Inhibition Mode” value in assay [2] is “Mixed”. The half-inhibitory concentration (IC50) stood at 69.1 ± 1.49 µM in assay [1] (setting [7]), 16.2 ± 0.29 µM in assay [3] (setting [9]) and 6.35 ± 0.36 µM in assay [4]. Further, the “PTP1B Inhibition Mode” value is reported as “Mixed” in assay [6] and “mixed-type” in assay [6] (listed as kuwanon G (7)).
As for `CC(C)(S)[C@H](N)C(=O)O` [L-Penicillamine, reference compound], in assay [4], the “IC50 Values ONOO−” value stood at 1.37 ± 0.19 µg/mL (≈ 9.18 µM) and the IC50 is 6.69 ± 0.52 µM.
On to `Oc1cc(O)cc(-c2cc3ccc(O)cc3o2)c1` [Moracin M (2), Moracin M], for which, in assay [2] (setting [8]), the inhibition constant (Ki) was found to be 3.32 µM. Also, in assay [2], the “α-Glucosidase Inhibition Mode” value is “Mixed”. In addition, the concentration for half-maximal inhibition (IC50) in assay [1] (setting [7]) is 2.1 ± 0.22 µM; in assay [3] (setting [9]) it was 333 ± 20.5 µM; in assay [4], 1.08 ± 0.04 µM.
Take `O=c1cc(-c2ccc(O)cc2O)oc2cc(O)cc(O)c12` [Norartocarpetin (6), Norartocarpetin]: the Ki in assay [2] (setting [8]) was found to be 19.9 µM. The “α-Glucosidase Inhibition Mode” value in assay [2] was “Mixed”. Besides, the concentration for half-maximal inhibition (IC50) in assay [1] (setting [7]) was 77.3 ± 9.58 µM; in assay [3] (mean ± SD of triplicate experiments, read-out: IC50 Values PTP1B), above 349 µM; in assay [3] (setting [9]), above 100 µM; in assay [4] it was 3.01 ± 0.15 µM. The PTP1B inhibition in assay [5] is 20%. In addition, in assay [3] (at 100 μg/mL), the PTP1B-inhibitory activity result was “no PTP1B-inhibitory activity”.
In the case of `Oc1cc(O)cc(/C=C/c2ccc(O)cc2O)c1` [Oxyresveratrol (5), Oxyresveratrol], the Ki in assay [2] was determined as 1.14 µM; in assay [6], 2.16 µM. Besides, the “α-Glucosidase Inhibition Mode” value in assay [2] is “Mixed”. Further, the half-maximal inhibitory concentration (IC50) in assay [1] (setting [7]) is 7.56 ± 0.15 µM; in assay [3] (PTP1B IC50, mean ± SD of triplicate experiments) it was 2.85 ± 0.3 µM; in assay [4], 2.37 ± 0.21 µM.

The values above are taken from publication PMC8869400, “Inhibition Mechanism of Components Isolated from Morus alba Branches on Diabetes and Diabetic Complications via Experimental and Molecular Docking Analyses” (Antioxidants, 2022).
